Test results reported in the NIST ThermoML archive (doi:10.1016/j.fluid.2012.08.005).
Numbers after ± are expanded uncertainties.

Assay: xn = mol fraction of the nth substance listed
Conditions: 101 kPa, Liquid, Vibrating tube method

c1ccoc1 [furan] + CCCCCC
mass density [kg/m3]
Conditions	x1 = 0.12	x1 = 0.199	x1 = 0.365	x1 = 0.511	x1 = 0.623	x1 = 0.786	x1 = 0.908	x1 = 1
293.15 K	677.8 ± 0.3	690.2 ± 0.3	721.4 ± 0.3	755.2 ± 0.3	786.2 ± 0.3	841.2 ± 0.3	891.9 ± 0.2	939.8 ± 0.2
298.15 K	673.9 ± 0.3	686.1 ± 0.3	717 ± 0.3	750.5 ± 0.3	781.4 ± 0.3	835.9 ± 0.3	886.4 ± 0.2	934 ± 0.2
303.15 K	670 ± 0.3	682.2 ± 0.3	712.8 ± 0.3	746 ± 0.3	776.6 ± 0.3	830.8 ± 0.3	881 ± 0.2	928.3 ± 0.2

c1ccoc1 [furan] + Cc1ccccc1
mass density [kg/m3]
Conditions	x1 = 0.1	x1 = 0.199	x1 = 0.387	x1 = 0.507	x1 = 0.591	x1 = 0.761	x1 = 0.89	x1 = 1
293.15 K	873.3 ± 0.1	878.9 ± 0.1	889.8 ± 0.1	897.7 ± 0.1	903.8 ± 0.2	917.5 ± 0.2	929.2 ± 0.2	939.8 ± 0.2
298.15 K	869.5 ± 0.1	875 ± 0.1	885.6 ± 0.1	893.2 ± 0.1	899.1 ± 0.2	912.4 ± 0.2	923.7 ± 0.2	934 ± 0.2
303.15 K	865.9 ± 0.1	871.2 ± 0.1	881.5 ± 0.1	888.9 ± 0.1	894.6 ± 0.2	907.5 ± 0.2	918.4 ± 0.2	928.3 ± 0.2

CCCCCC [hexane] + c1ccoc1
x2 = 0
Conditions	mass density [kg/m3]
293.15 K	660.8 ± 0.3
298.15 K	657 ± 0.3
303.15 K	653.3 ± 0.3

Cc1ccccc1 [toluene] + c1ccoc1
x2 = 0
Conditions	mass density [kg/m3]
293.15 K	868.2 ± 0.1
298.15 K	864.5 ± 0.1
303.15 K	861 ± 0.1
